These results are taken from US5457092A, “Methods of promoting bone growth in mammals comprising administration of modified parathyroid hormone” (Gesellschaft fur Biotechnologische Forschung mbH (GBF), priority 1987, dated 1995).

The test system of assay [1] is chondrocytes isolated from the sterna of 16-day-old chicken embryos. Description: Determination of cell number of chondrocyte cultures. The assay is classed as cell-based. The note with it: induced for 24 hours; non-induced 41,000 cells/ml. The procedure: FIG. 7 is a comparative graph showing cell number after incubation of the non-induced cultures compared to cultures induced with hPTH (28-48) for 24 hours.
FIG. 1: In order to determine the incorporation of ^3 H-methylthymidine into total DNA the cells were cultivated on microtiter plates in M199 medium at a concentration of foetal calf serum (FCS) of less than 0.5% (by volume). The cell density of the chondrocytes that reacted to the addition of PTH with an increase in the incorporation of ^3 H-methylthymidine into the total DNA was from 1250 to 6000 cells/microtitre well (diameter 6 mm) at the time of plating-out. […] The incorporation of ^3 H-methylthymidine into the total DNA was determined as follows. After removing the radioactive medium, the adherent growing chondrocytes were washed with PBS and lysed in the microtitre wells. The total DNA was then precipitated under acid conditions at low temperature and transferred onto filter papers using a semi-automatic harvesting device. The rate of incorporation into total DNA could then be determined; cf. FIG. 1. […] The concentration for semi-maximum stimulation was from 9 to 15 nM for bPTH(1-84) and from 50 to 75 nM for the PTH fragments bPTH(1-34) and bPTH(3-34). In contrast, the PTH fragment hPTH(28-48), which, according to Adv. Protein Chemistry, 35 (1982) 323 ff.

Assay [2] shares this test system. As to the kind of experiment: Incorporation of 3H-methylthymidine into total DNA of chicken embryo chondrocytes (Examples 1-3). In kind it is cell-based. From the text: FIG. 1 is a graph showing the stimulation of chondrocyte DNA synthesis by the addition of PTH and PTH fragments; expressed as the ratio of the rate of incorporation of ^3 H-methylthymidine into the total DNA of the induced cultures to that of the untreated control cultures.
FIGS. 2-6 are graphs showing the dosage/effect curves for the mitogenic activity of PTH and PTH fragments;
FIG. 1: In order to determine the incorporation of ^3 H-methylthymidine into total DNA the cells were cultivated on microtiter plates in M199 medium at a concentration of foetal calf serum (FCS) of less than 0.5% (by volume). The cell density of the chondrocytes that reacted to the addition of PTH with an increase in the incorporation of ^3 H-methylthymidine into the total DNA was from 1250 to 6000 cells/microtitre well (diameter 6 mm) at the time of plating-out. […] The incorporation of ^3 H-methylthymidine into the total DNA was determined as follows. After removing the radioactive medium, the adherent growing chondrocytes were washed with PBS and lysed in the microtitre wells. The total DNA was then precipitated under acid conditions at low temperature and transferred onto filter papers using a semi-automatic harvesting device. The rate of incorporation into total DNA could then be determined; cf. FIG. 1. […]

The test system of assay [3] is chondrocytes from sterna of 16-day-old embryonic chicks. As to the kind of experiment: Stimulation of DNA synthesis in chondrocytes by PTH fragments (Table 1). The note with it: for [^3 H]thymidine incorporation: 4 h, control 324 ± 18; for E/C: stimulated / non-induced control cells. In kind it is cell-based, chick. The procedure: Chondrocytes were isolated from sterna of 16-day-old embryonic chicks according to J. Biol. Chem., 261 (1986) 7997-8001 (10; Yasui et al.) with some modifications. Collagenase was dissolved in Hanks' balanced salt solution (0.4 mM Na2 HPO4, 140 mN NaCl, 5.3 mM KCl, 0.4 mM MgSO4, 1.3 mM CaCl2, 0.4 mM KH2 PO4, 0.5 mM MglC2, 5 mM glucose, 0.05% gentamicin) at a concentration of 286 units/ml. Sterna were treated repeatedly for 30 min with collagenase solution at 37° C. Cells first released by this procedure were discarded because of their very poor responsiveness towards PTH. The collagenase treatment was subsequently repeated leading to a highly homogenous cell population of chondrocytes. The cells obtained by a second collagenase treatment were collected by centrifugation (1000 rpm, 10 min), washed twice with medium (Dulbecco's modified Eagle's medium, GIBCO, supplemented with NaHCO3 (45 mM), glutamine (2 mM), penicillin G/streptomycin (65 mg/1 and 100 mg/l, respectively), Hepes (10 mM, pH 7.2), and FCS (10% v/v) and counted.
The DNA synthesis rate was assayed in monolayer culture by the incorporation of ]^3 H]thymidine into perchloric acid-precipitable material. […] After 17 h, the medium was replaced by 200 μl of serum-free medium. After 4 days, chondrocytes were incubated for 4 h with the appropriate effector and 1μ Ci of [^3 H]thymidine. Subsequently, medium was removed and the cells were washed twice with 200 μl of phosphate-buffered saline (PBS: 137 mM NaCl, 2.7 mN KCl, 1.5 mM KH2 PO4, 0.8 mN Na2 HPO4, pH 7.0). Then cells were lysed by 100 μl of 2% (v/v) Nonidet P- 40 and 2% (w/v) sodium dodecyl sulfate treatment and the perchloric acid-insoluble material was precipitated by adding an equal volume of ice-cold 2% (w/v) perchloric acid in the presence of 1% herring sperm DNA as carrier. After storage for 10 min at -20° C., the precipitated material of each well was transferred to glass fiber filters with a Scatron--As semiautomatic cell harvester. Filters were dried at 80° C. for 20 min, transferred into scintillation vials, and 2 ml of scintillation mixture (scintillator 299; United Technology Pachard) were added. Radioactivity of the samples was determined with a β counter (Minimax; United Technology Pachard). Each test consisted of 5 up to 10 identically treated wells and was repeated at least twice with freshly prepared chondrocytes.
The incorporation of [^3 H]thymidine by non-induced control cells and by stimulated cells is shown by C and E, respectively. The results shown mean ±S.E. for n parallel cell cultures.

Turning to “hPTH(28-48): mid-regional PTH fragment 28-48, human source (LQDVHNFVALGAPLAPRDAGS; Parathyroid hormone; UniProt P01270 59-79, looked up, fragment)”, the total cell number in assay [1] was 63,000 cells/ml. Also, the EC50 in assay [2] (3H-methylthymidine incorporation into total DNA, read-out: concentration for semi-maximum stimulation) came out at 349 nM. Also, the “increase in the incorporation of 3H-methylthymidine into total DNA by a factor” value in assay [2] (ratio induced / untreated control cultures, depending on concentration) is on record as 6.
With “hPTH(25-39): PTH fragment 25-39, human source (RKKLQDVHNFVALGA; Parathyroid hormone; UniProt P01270 56-70, looked up, fragment)”, the “[^3 H]thymidine incorporation” value in assay [3] (6.1 × 10^-4 mol/l) is on record as 542 ± 71 cpm; in assay [3] (6.1 × 10^-5 mol/l), 655 ± 147 cpm; in assay [3] (6.1 × 10^-6 mol/l), 517 ± 65 cpm; in assay [3] (6.1 × 10^-7 mol/l), 418 ± 41 cpm; in assay [3] (6.1 × 10^-8 mol/l), 452 ± 56 cpm. Moreover, the E/C in assay [3] (6.1 × 10^-4 mol/l) is recorded as 1.67; in assay [3] (6.1 × 10^-5 mol/l), 2.02; in assay [3] (6.1 × 10^-6 mol/l), 1.60; in assay [3] (6.1 × 10^-7 mol/l), 1.29; in assay [3] (6.1 × 10^-8 mol/l), 1.40.
